Laboratory results as given in US20210393558A1, “METHODS AND COMPOSITIONS FOR PREVENTION AND TREATMENT OF PRESSURE ULCERS” (TECHNION RESEARCH AND DEVELOPMENT FOUNDATION LTD., priority 2017, published 2021).

Experiments:
C2C12 myoblasts [1] = assay: Membrane permeability (FITC-labeled 4 kDa dextran uptake, FACS) under damage-level 12% strain; assay type: cell-based, murine
Description: (§1) For each experiment, 300,000 cells were cultured 24 hours in parallel on 2-4 bioflexcell collagen-coated 6-well plates (Flexcell Inc., North Carolina). On the day of the experiment the cell growth media (with 0/1 mM NaPy) was replaced with media supplemented with different NaPy concentrations (0, 1 or 5 mM) and cells were incubated for 4 hours; this constitutes the pre-treatment of the cells. A four-hour pre-treatment was chosen as that is a clinically relevant time-scale during preparation e.g. before planned surgical procedures.
(§2) Each 6-well plate contained two wells with each of the three NaPy pre-treatment concentrations. After 4 hours, all but one of the bioflexcell plates were simultaneously subjected to damaging-level, sustained strain-loads of 12% radial stretching for 3 hours and one plate in each experiment was not stretched for control. […] Next, cells were centrifuged (900 rpm for 5 min) and resuspended in 0.5 ml of PBS within 12×75 mm polystyrene test tubes for use with fluorescence activated cell sorting (FACS).
(§3) Permeability of the plasma membrane was quantified by cell uptake of the small (4 kDa) FITC-labeled Dextran. Fluorescence intensity changes due to internalized FITC-labeled Dextran and auto fluorescence of over 20,000 cells per sample was measured using a fluorescence-activated cell sorting (FACS) Calibur system (BD Biosciences, New Jersey) with the fluorescence channel. […] For each pre-treatment (and growth media) condition 4 measurements were collected: strain-loaded cells with or without added dextran, and unstrained control cells with or without dextran; samples without dextran provide a control for native cell auto-fluorescence (AF). The percent change in dextran uptake is calculated by the mean value of the strained sample relative to the unstrained samples, after subtracting the auto-fluorescence for each. […]

NIH3T3 fibroblasts [2] = assay: as above; assay type: cell-based, murine; conditions: increasing concentrations of NaPy pre-treatment (0, 1, 5 mM, 4 hours), 12% strain 3 hrs
Description: as §1, §2, §3

[3] = group given NaPy eye drops, 2 hours prior to extraction; control 0.145+/−0.06 mM; cited from earlier work
C2C12 myoblasts [4] = assay: Gap closure of damaged monolayers with low/medium-level stretching; assay type: cell-based, Mouse
Description: (§4) Mouse myoblast or fibroblast cells (1×10^6 per well, previously grown media containing 1 mM NaPy) were seeded 1-3 days prior to performing a stretching experiment in a six-well (31-mm diameter) culture plate with an elastic, 0.51-mm thick, transparent and collagen-coated substrata bottom (Flexcell Inc., Burlington, N.C.). Cells were grown on the stretchable-bottom plate until a confluent monolayer had formed. The plates with cells were then mounted onto our stretching apparatus and radial stretching to tensile strains of 3% or 6% or 0% (no-stretch) control was applied Immediately following stretching, compressive deformation damage was induced in each monolayer using a rigid optic fiber (˜350 μm diameter). Cells at the center of each well were crushed, inducing an approximately circular cell-damage area with varying sizes (0.05-0.5 mm^2). Media was replaced to remove any cell debris and the fresh media contained varying concentrations of sodium pyruvate: 0, 1 or 5 mM. Then the time-dependent gap closure was evaluated to reveal kinematic features The stretching apparatus was mounted in the motorized microscope stage to facilitate for time-lapse imaging of progression of the gap closure. Cell viability throughout the prolonged experiments was ensured by maintaining 37° C., 5% CO2 and high humidity, using an incubator that enclosed the microscope (Life Imaging Services, Basel, Switzerland).
(§5) Time-lapse imaging was performed using a fully motorized, inverted fluorescence microscope (Olympus IX81, Tokyo, Japan) with a custom MATLAB 2012b (The MathWorks, Natick, Mass.) graphical user interface (GUI) module to automatically control lens positioning and collect images of the gap every 10 minutes for up to 24 hours. Images were taken using an XR Mega-10AWCL camera (Stanford Photonics Inc., Palo Alto, Calif.), using a 10×/NA 0.3 long working-distance, air immersion objective lens at a final magnification of 646.8 nm/pixel. A custom algorithm in MATLAB 2012b was used to automatically analyze the time-progression images of the gap area closure and quantify cell migration and gap closure progression, as described in Topman et al. (Micron 51:9-12; 2012); Toume et al. Int Wound J 14:698-703; 2017). Briefly, the time-dependent area was fit to a Richard's function, which is an asymmetric sigmoid, by minimizing the mean squared error. Using the fitted curve, the maximum migration rate was calculated, which is the maximal slope of the area vs. time, Richards fit. The normalized maximum migration rate was obtained by dividing the maximum migration rate by the initial gap area. In addition, the time for 90% gap area closure, which is indicative of the end of the en masse cell migration regime was obtained (Topman et al. 2012; Med Eng Phys 34:225-232).
(§6) Results of the different conditions were compared using a two-way analysis of variance (ANOVA) for unequal length samples; Statistical analysis was performed in MATLAB. The interaction parameter was found significant, thus the interactions between the sodium pyruvate concentration and the stretching level and were important; in cases where only the interaction parameter the interaction is considered ‘simple’ by typical definitions in statistical analysis. A one-way ANOVA was also performed in conjunction with post-hoc Tukey-Kramer tests to identify statistically significant differences levels of sodium pyruvate for each level of stretching and vice versa. A P-value lower than 0.05 was considered significant.
(§7) Both tested cell types, C2C12 myoblasts and NIH3T3 fibroblasts were cultured in media with 1 mM sodium pyruvate up to the time of infliction of compressive deformation damage (micro-gap formation) and concurrent application of radial stretching. […]

NIH3T3 fibroblasts [5] = assay: as above; assay type: cell-based, Mouse; conditions: 0% stretching, post-injury NaPy 0, 1 or 5 mM
Description: as §4, §5, §6, §7

[6] = cited from earlier work
[7] = 3%-cream applied on the skin, after 24 hours; cited from earlier work
[8] = 1 mM NaPy with 3% stretching vs no NaPy
[9] = 5 mM NaPy with 3% stretching vs no NaPy
[10] = adopted from the literature, model input

Row | Structure (SMILES) | cell damage-induced uptake of dextran relative to control (C2C12 myoblasts [1]; NaPy pre-treatment 0, 1, 5 mM for 4 hours, then 12% sustained stretch 3 hrs) | strain-damage induced membrane poration (C2C12 myoblasts [1]; cultured in media containing 1 mM NaPy, pre-treated with 5 mM NaPy, 12% strain 3 hrs) | damage to membrane integrity (uptake relative to control) (NIH3T3 fibroblasts [2]) | level of NaPy in corneal tissue [3] [µM] | gap closure rate (C2C12 myoblasts [4]; 0% stretching, post-injury NaPy 0, 1 or 5 mM) | normalized gap-closure rate (C2C12 myoblasts [4]; 1 mM NaPy post-injury with 3% stretching (16.3 without NaPy)) [% area/hr] | time to reach 90% gap coverage (C2C12 myoblasts [4]; 1 mM NaPy with 3% stretching (9.2 hrs without NaPy)) [h] | decrease of time to reach 90% gap coverage (C2C12 myoblasts [4]; [8]) [%] | increase of normalized gap-closure rate (C2C12 myoblasts [4]; [8]) [%] | normalized gap-closure rate (C2C12 myoblasts [4]; 5 mM NaPy post-injury with 3% stretching (16.3 without NaPy)) [% area/hr] | time to reach 90% gap coverage (C2C12 myoblasts [4]; 5 mM NaPy with 3% stretching (9.2 hrs without NaPy)) [h] | decrease of time to reach 90% gap coverage (C2C12 myoblasts [4]; [9]) [%] | increase of normalized gap-closure rate (C2C12 myoblasts [4]; [9]) [%] | gap closure (C2C12 myoblasts [4]; 3% strain combined with post-injury exogenous NaPy supplement (1 or 5 mM)) | gap closure rate (NIH3T3 fibroblasts [5]) | Solubility in the aqueous phase of the dressing and tissues [6, 10] [mg/mL] | diffusivity in the aqueous phase of the dressing and tissues [6, 10] [mm^2/s] | free diffusivity in the aqueous phase of the dressing and tissues [6, 10] [mm^2/s] | log Ko/W ([6]; input of the Kp equation) | transdermal flux [7]
1 | CC(=O)C(=O)[O-].[Na+] [NaPy, sodium pyruvate] | a reduction was observed in the cell damage-induced uptake of dextran relative to control that is proportional to the NaPy concentration | a reduction was observed in the strain-damage induced membrane poration to insignificant levels | reduced damage to membrane integrity | 350 to 525 | unaffected | 20.5 | 7.3 | 21 | 26 | 23.7 | 6.3 | 31 | 46 | successfully accelerated gap closure in a concentration dependent and statistically significant manner | unaffected | 100 | 0.0005 | 0.001 | −5.05 | 
2 | O=C(O)Cc1ccccc1Nc1c(Cl)cccc1Cl [Diclofenac Sodium] |  |  |  |  |  |  |  |  |  |  |  |  |  |  |  |  |  |  |  | 0.321-0.943 nmol/cm^2·h
